Columns and labels:
[1] = tested on: CUG RNA foci in primary DM1 patient myoblasts; experiment: DOUBLE-cut screening: FISH staining of RNA foci in primary DM1 patient myoblasts; assay type: cell-based, human; settings: sgRNA pair RNP, 72 hrs post nucleofection; for % of CUG foci free nuclei (DNA-PKi): 3 μM Compound 6 for 48 hrs; for % of CUG foci free nuclei (Vehicle): DMSO 48 hrs
Procedure: (§1) RNPs were assembled with recombinant SaCas9 protein (Aldevron) and chemically modified sgRNAs (Synthego) at a ratio of 1:3 (protein:sgRNA). For SINGLE-cut screening, RNP complexes were assembled with 30 pmol of SaCas9 and 90 pmol of sgRNA in P5 Primary Cell Nucleofector Solution (Lonza). After incubation at room temperature for 20 minutes, 10 μL of RNP complex was mixed with two hundred thousand primary myoblasts resuspended in 10 μL of P5 Nucleofector Solution. For DOUBLE-cut screening, RNP complexes were first assembled for individual sgRNAs with 20 pmol of SaCas9 protein and 60 pmol of sgRNAs in 5 μL of P5 Nucleofector Solution. After incubation at room temperature for 20 minutes, the two RNP complexes (one for upstream sgRNA and one for downstream sgRNA) were mixed at 1:1 ratio and then further mixed with two hundred thousand primary myoblasts resuspended in 10 μL of P5 Nucleofector Solution.
(§2) The Nucleofector 96-well Shuttle System (Lonza) was used to deliver the SaCa9/sgRNA RNPs into primary DM1 patient myoblasts using the nucleofection program CM138. Following nucleofection, myoblasts from each well of nucleofection shuttle were split into six wells of the 96-well cell culture plate (Greiner, 655090) coated with matrigel. The first three wells were treated with DMSO for 48 hrs before changing to fresh myoblast growth medium, and the other three wells were treated with 3 μM of DNA-PKi Compound 6 for 48 hrs before changing to fresh myoblast growth medium. 72 hrs post nucleofection, two wells of DMSO-treated myoblasts and two wells of DNA-PKi-treated myoblasts from each nucleofection were harvested for genomic DNA extraction using the Kingfisher Flex purification system (Thermal Fisher), whereas one well of DMSO-treated myoblasts and one well of DNA-PKi-treated myoblasts were stained for RNA foci by FISH staining.
Primary myoblasts were fixed for 15 min with 4% paraformaldehyde (PFA) and washed five times with 1×PBS for 10 min each at room temperature. Before staining, cells were permeabilized with 0.5% triton X-100 in 1×PBS for 5 min at room temperature, and then washed with 30% formamide and 2× saline-sodium citrate (SSC) mixture for 10 min at room temperature. Cells were then stained with 1 ng/μL of Cy3-PNA(CAG) 5 probe (PNA Bio, F5001) diluted in 30% formamide, 2×SSC, 2 μg/mL BSA, 66 μg/mL yeast tRNA, and 2 mM vanadyl complex for 15 min at 80° C. Following probe staining, cells were then washed in 30% formamide and 2×SSC mixture for 30 min at 42° C., then washed in 30% formamide and 2×SSC mixture for 30 min at 37° C., and then washed in 1×SSC solution for 10 min at room temperature, and finally washed in 1×PBS for 10 min at room temperature. Cells were next stained with anti-MBNL1 antibody (Santa Cruz, 3A4) diluted in 1% bovine serum albumin (BSA) for overnight at 4° C., and washed twice with 1×PBS for 10 min each at room temperature. Cells were then incubated with the secondary antibody goat […] Alexa 647 (Thermo Fisher, A32728) diluted in 1% BSA for 1 hr at room temperature, and washed twice with 1×PBS for 10 min each at room temperature. Next, cells were stained with Hoechst solution (Thermo Fisher, H3569) at 0.1 mg/ml for 5 min, and washed once with 1×PBS for 5 min. PBS was aspirated and fresh 100 μl of fresh PBS was added to each well. High-throughput acquisition of images was completed with the ImageXpress Micro Confocal High-Content Imaging System (Molecular Devices). RNA foci quantifications were accomplished with a customized analysis module of the MetaXpress program (Molecular Devices).
Next, DOUBLE-cut screening was performed to assess the efficiency of paired sgRNAs-induced CTG repeat excision and RNA foci reduction. 90 SaCas9 sgRNA pairs formed by one upstream sgRNA and one downstream sgRNA were assembled with recombinant SaCas9 protein into RNP complex and nucleofected into primary DM1 patient myoblasts. […]

[2] = tested on: CTG repeat expansion in the 3′ UTR of human DMPK gene; experiment: DOUBLE-cut screening: CTG repeat excision by loss-of-signal ddPCR in primary DM1 patient myoblasts; assay type: cell-based; settings: sgRNA pair RNP, mean of upstream and downstream ddPCR assays; for % of CTG repeat excision efficiency by ddPCR (DNA-PKi): 3 μM Compound 6 for 48 hrs; for % of CTG repeat excision efficiency by ddPCR (Vehicle): DMSO 48 hrs
Procedure: as §1, §2
The primers and probes of ddPCR were designed using the online primer design software Primer3Plus (http://www.bioinformatics.nl/cgi-bin/primer3plus/primer3plus.cgi). The two Target primers/probe sets were used to detect CTG repeat excision, and the Reference primers/probe set was used to amplify a region located in Exon 1 of human DMPK gene and it served as a reference control for the Target sets. The 24 μL of ddPCR reaction consisted of 12 μL of Supermix for Probes (no dUTP) (Bio-Rad Laboratories), 1 μL of Reference primers mix (21.6 μM), 1 μL of Reference probe (6 μM), 1 μL of Target primers mix (21.6 μM), 1 μL of Target probe (6 μM), and 8 μL of sample genomic DNA. Droplets were generated using probe oil with the QX200 Droplet Generator (Bio-Rad Laboratories). Droplets were transferred to a 96-well PCR plate, sealed and cycled in a C1000 deep well Thermocycler (Bio-Rad Laboratories) under the following cycling protocol: 1 cycle at 95° C. for 10 min; 40 cycles of 94° C. for 30 sec, and 58° C. for 1 min; 1 cycle at 98° C. for 10 min (for enzyme inactivation). The cycled plate was then transferred and read in the FAM and HEX channels using the Bio-Rad QX200 Droplet Reader (Bio-Rad Laboratories). ddPCR analysis was performed with the Bio-Rad QuantaSoft Pro Software.
Next, DOUBLE-cut screening was performed to assess the efficiency of paired sgRNAs-induced CTG repeat excision and RNA foci reduction. 90 SaCas9 sgRNA pairs formed by one upstream sgRNA and one downstream sgRNA were assembled with recombinant SaCas9 protein into RNP complex and nucleofected into primary DM1 patient myoblasts. Nucleofected myoblasts were treated with either DMSO (vehicle) or 3 μM of Compound 6 (DNA-PKi) for 48 hrs. 72 hrs post nucleofection, myoblasts were subjected to either genomic DNA isolation or RNA foci staining.
One upstream and one downstream loss-of-signal droplet digital PCR (ddPCR) assays were used to determine the efficiency of CTG repeat excision. ddPCR signals would be abolished upon excision of the CTG repeat expansion in these loss-of-signal ddPCR assays. […]

Substance	% of CUG foci free nuclei (DNA-PKi) [1]	% of CUG foci free nuclei (Vehicle) [1]	% of CTG repeat excision efficiency by ddPCR (DNA-PKi) [2]	% of CTG repeat excision efficiency by ddPCR (Vehicle) [2]
SaU2 + SaD17: SaCas9 sgRNA pair, SEQ ID NOs: 2 and 25 (guide 1 ACTCAGTCTTCCAACGGGGCCC; guide 2 TTTATTCGCGAGGGTCGGGGGT; listed as DNA, chemistry not fully specified)	78.68%	55.20%	52.34%	31.11%
SaU2 + SaD18: SaCas9 sgRNA pair, SEQ ID NOs: 2 and 26 (guide 1 ACTCAGTCTTCCAACGGGGCCC; guide 2 GGGCCTTTTATTCGCGAGGGTC; listed as DNA, chemistry not fully specified)	69.93%	32.87%	48.16%	19.28%
SaU2 + SaD19: SaCas9 sgRNA pair, SEQ ID NOs: 2 and 27 (guide 1 ACTCAGTCTTCCAACGGGGCCC; guide 2 AGGACCCCCACCCCCGACCCTC; listed as DNA, chemistry not fully specified)	80.94%	62.27%	56.62%	49.08%
SaU2 + SaD20: SaCas9 sgRNA pair, SEQ ID NOs: 2 and 28 (guide 1 ACTCAGTCTTCCAACGGGGCCC; guide 2 AGATGGAGGGCCTTTTATTCGC; listed as DNA, chemistry not fully specified)	82.08%	74.86%	61.08%	36.35%
SaU3 + SaD2: SaCas9 sgRNA pair, SEQ ID NOs: 3 and 10 (guide 1 ACTCCGGGGCCCCGTTGGAAGA; guide 2 TCGGCCAGGCTGAGGCCCTGAC; listed as DNA, chemistry not fully specified)	82.73%	77.08%	54.49%	50.85%
SaU3 + SaD3: SaCas9 sgRNA pair, SEQ ID NOs: 3 and 11 (guide 1 ACTCCGGGGCCCCGTTGGAAGA; guide 2 CAACGATAGGTGGGGGTGCGTG; listed as DNA, chemistry not fully specified)	78.72%	51.28%	57.46%	36.25%
SaU3 + SaD4: SaCas9 sgRNA pair, SEQ ID NOs: 3 and 12 (guide 1 ACTCCGGGGCCCCGTTGGAAGA; guide 2 ACTTTGCGAACCAACGATAGGT; listed as DNA, chemistry not fully specified)	87.42%	83.67%	64.28%	47.22%
SaU3 + SaD5: SaCas9 sgRNA pair SaU3 and SaD5; table prints SEQ ID NOS: 2 and 13 (guide 1 ACTCCGGGGCCCCGTTGGAAGA; guide 2 GGGTTTGGCAAAAGCAAATTTC; listed as DNA, chemistry not fully specified)	84.63%	73.56%	60.74%	43.61%
SaU3 + SaD6: SaCas9 sgRNA pair, SEQ ID NOs: 3 and 14 (guide 1 ACTCCGGGGCCCCGTTGGAAGA; guide 2 CTTTTGCCAAACCCGCTTTTTC; listed as DNA, chemistry not fully specified)	64.84%	31.37%	50.32%	24.10%
SaU3 + SaD7: SaCas9 sgRNA pair, SEQ ID NOs: 3 and 15 (guide 1 ACTCCGGGGCCCCGTTGGAAGA; guide 2 GGGGCGCGGGATCCCCGAAAAA; listed as DNA, chemistry not fully specified)	76.54%	49.49%	58.50%	35.98%
SaU3 + SaD10: SaCas9 sgRNA pair, SEQ ID NOs: 3 and 18 (guide 1 ACTCCGGGGCCCCGTTGGAAGA; guide 2 TTGGGGGTCCTGTAGCCTGTCA; listed as DNA, chemistry not fully specified)	86.88%	75.19%	69.50%	44.56%
SaU3 + SaD11: SaCas9 sgRNA pair, SEQ ID NOs: 3 and 19 (guide 1 ACTCCGGGGCCCCGTTGGAAGA; guide 2 CAAAACGTGGATTGGGGTTGTT; listed as DNA, chemistry not fully specified)	73.87%	50.28%	58.33%	32.84%
SaU3 + SaD12: SaCas9 sgRNA pair, SEQ ID NOs: 3 and 20 (guide 1 ACTCCGGGGCCCCGTTGGAAGA; guide 2 TCAGTGCATCCAAAACGTGGAT; listed as DNA, chemistry not fully specified)	83.21%	74.46%	59.96%	38.05%
